In ChEMBL document CHEMBL1136068 (Bioorg Med Chem Lett, 2003):
pEC50, pIC50, pKi: −log10 of the molar value. Activity calls are given as the source filed them. The calls are words filed in the database; no cut-off is given here.

Legend:
Estrogen receptor [1] = biological target: T1, Estrogen receptor (Homo sapiens, UniProt Q92731+P03372); assay: Inhibitory activity against human Estrogen receptor; not active; type: protein assay
Estrogen receptor [2] = biological target: T1, Estrogen receptor; assay: Antagonist efficacy with estrogen (hER) receptor; not active; type: functional
[3] = biological target: T2, Mineralocorticoid receptor (Homo sapiens, UniProt P08235); assay: Antagonist activity at mineralocorticoid receptor (hMR); not active; type: functional
T2 sequence (P08235 whole entry): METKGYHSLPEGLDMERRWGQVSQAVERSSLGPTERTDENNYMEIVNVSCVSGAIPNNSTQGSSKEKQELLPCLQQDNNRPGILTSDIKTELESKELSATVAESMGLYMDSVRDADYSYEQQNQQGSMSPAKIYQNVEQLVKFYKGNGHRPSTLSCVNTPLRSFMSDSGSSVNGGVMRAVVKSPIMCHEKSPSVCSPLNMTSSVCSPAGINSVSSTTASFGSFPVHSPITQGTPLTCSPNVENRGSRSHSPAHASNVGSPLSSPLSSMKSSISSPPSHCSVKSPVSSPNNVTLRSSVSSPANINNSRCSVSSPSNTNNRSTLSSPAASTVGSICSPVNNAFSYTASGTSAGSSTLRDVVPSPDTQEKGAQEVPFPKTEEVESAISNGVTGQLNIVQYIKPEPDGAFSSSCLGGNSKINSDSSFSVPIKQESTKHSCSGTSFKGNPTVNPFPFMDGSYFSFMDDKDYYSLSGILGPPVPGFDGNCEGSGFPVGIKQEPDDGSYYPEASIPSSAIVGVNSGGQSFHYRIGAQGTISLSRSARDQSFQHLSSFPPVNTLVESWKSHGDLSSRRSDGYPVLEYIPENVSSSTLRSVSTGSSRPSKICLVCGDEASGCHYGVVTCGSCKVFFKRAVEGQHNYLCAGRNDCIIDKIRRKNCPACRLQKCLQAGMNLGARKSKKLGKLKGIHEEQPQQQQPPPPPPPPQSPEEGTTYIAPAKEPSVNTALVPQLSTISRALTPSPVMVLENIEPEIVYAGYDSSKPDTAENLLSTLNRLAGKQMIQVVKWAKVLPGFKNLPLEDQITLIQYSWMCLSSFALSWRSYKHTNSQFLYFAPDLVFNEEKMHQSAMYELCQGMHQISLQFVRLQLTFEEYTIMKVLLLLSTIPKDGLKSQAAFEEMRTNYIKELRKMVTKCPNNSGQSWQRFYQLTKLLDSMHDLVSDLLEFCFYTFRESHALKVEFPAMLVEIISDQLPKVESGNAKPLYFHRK

[4] = biological target: T3, Mineralocorticoid receptor (Homo sapiens) (UniProt P08235); assay: Antagonist efficacy at mineralocorticoid receptor (hMR); not active; type: functional
T3 sequence (whole entry): T2 sequence (P08235 whole entry)

[5] = biological target: T4, Progesterone receptor (Homo sapiens) (UniProt P06401); assay: Agonist efficacy towards human progesterone receptor (hPR) using the cotransfection assay in CV-1 cells; type: functional, cell-based
T4 sequence (whole entry): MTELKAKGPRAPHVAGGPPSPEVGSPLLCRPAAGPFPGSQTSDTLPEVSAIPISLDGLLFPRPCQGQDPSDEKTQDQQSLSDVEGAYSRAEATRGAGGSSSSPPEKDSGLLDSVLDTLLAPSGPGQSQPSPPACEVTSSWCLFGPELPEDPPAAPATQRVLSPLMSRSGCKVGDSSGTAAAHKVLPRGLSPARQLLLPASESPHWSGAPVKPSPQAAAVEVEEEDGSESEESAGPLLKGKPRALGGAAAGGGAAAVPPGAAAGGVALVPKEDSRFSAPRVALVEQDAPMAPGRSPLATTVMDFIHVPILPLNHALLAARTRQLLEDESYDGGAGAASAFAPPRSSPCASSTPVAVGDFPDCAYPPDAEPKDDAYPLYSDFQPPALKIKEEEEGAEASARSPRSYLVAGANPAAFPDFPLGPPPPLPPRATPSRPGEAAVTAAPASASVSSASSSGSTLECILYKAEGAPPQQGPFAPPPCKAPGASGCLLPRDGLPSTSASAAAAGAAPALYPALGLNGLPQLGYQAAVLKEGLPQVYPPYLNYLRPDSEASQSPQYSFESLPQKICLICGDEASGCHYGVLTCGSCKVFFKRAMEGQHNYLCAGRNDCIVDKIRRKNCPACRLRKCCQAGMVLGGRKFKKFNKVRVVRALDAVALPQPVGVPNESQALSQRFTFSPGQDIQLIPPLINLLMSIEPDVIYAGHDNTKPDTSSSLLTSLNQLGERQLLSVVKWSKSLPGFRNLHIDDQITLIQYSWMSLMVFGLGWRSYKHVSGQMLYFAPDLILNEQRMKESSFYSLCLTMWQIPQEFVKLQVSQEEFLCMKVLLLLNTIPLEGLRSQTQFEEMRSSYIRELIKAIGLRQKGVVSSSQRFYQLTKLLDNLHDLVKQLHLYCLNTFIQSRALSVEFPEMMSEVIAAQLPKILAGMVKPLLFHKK

Progesterone receptor [6] = biological target: T5, Progesterone receptor (Homo sapiens, UniProt P06401); assay: Effective concentration for agonist activity towards human progesterone receptor (hPR) using the cotransfection assay in CV-1 cells; type: functional, cell-based
T5 sequence (P06401 whole entry): T4 sequence (whole entry)

[7] = biological target: T4, Progesterone receptor (Homo sapiens); assay: Antagonistic efficacy towards human progesterone receptor (hPR) using the cotransfection assay in CV-1 cells; Not active; type: functional, cell-based
Progesterone receptor [8] = biological target: T5, Progesterone receptor; assay: Binding affinity to human progesterone receptor
Progesterone receptor [9] = biological target: T5, Progesterone receptor; assay: Inhibitory concentration for antagonistic activity towards human progesterone receptor (hPR) using the cotransfection assay in CV-1 cells; Not active; type: functional, cell-based

SMILES | IC50 (Estrogen receptor [1]) [nM] | Efficacy (Estrogen receptor [2]) [%] | pIC50 [3] | Efficacy [4] [%] | Efficacy [5] [%] | pEC50 (Progesterone receptor [6]) | Efficacy [7] | pKi (Progesterone receptor [8]) | IC50 (Progesterone receptor [9])
CC1=CC(C)(C)Nc2ccc3c(c21)/C(=C/Br)Oc1ccc(F)cc1-3 | > 1000 | < 20 | < 6.00 | < 20 | 135 | 8.66 | inactive | 8.68 | Not Active
CC(C)=C/C=C1\Oc2ccc(F)cc2-c2ccc3c(c21)C(C)=CC(C)(C)N3 | > 1000 | < 20 | < 6.00 | < 20 | 172 | 8.77 | inactive |  | Not Active
CC/C(C)=C1\Oc2ccc(F)cc2-c2ccc3c(c21)C(C)=CC(C)(C)N3 |  |  |  |  | 112 | 7.96 | inactive | 8.10 | Not Active
CC(=O)C[C@]1(C(C)=O)CC[C@H]2C3C[C@H](C)C4=CC(=O)CC[C@]4(C)[C@H]3CC[C@@]21C (stereo partly specified) | > 1000 | < 20 | < 6.00 | < 20 | 80 | 9.82 | inactive | 9.47 | Not Active
